US20080009418A1, “Selective Inhibitors” (Alchemia LTD., priority 2004, published 2008)

How the values were obtained:
[1] = molecular target: T1, Human μ-opioid (MOP) (Homo sapiens, UniProt P35372); assay: Radioligand binding, human μ-opioid (MOP) membranes, FlashPlate, [3H]-Naloxone; conditions: compound at 10 μM; for A7 radioligand binding inhibition: human μ-opioid (MOP) membranes
T1 construct: purchased Perkin Elmer Biosignal
Method in brief: (§1)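 Cloned human receptor membranes were coated onto FlashPlate wells and incubated with radioligand and compound (added from a 0.5 mM DMSO daughter plate) for 1 hour at room temperature in the dark. Scintillation counting gave percent inhibition, with DMSO defining total and reference ligand defining non-specific binding.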

[2] = molecular target: T2, Human melanocortin (MC5) (Homo sapiens, UniProt P33032); assay: Radioligand binding, human melanocortin MC5 membranes, FlashPlate, [125I]-NDP-αMSH; conditions: compound at 10 μM; for A5 radioligand binding inhibition: human melanocortin MC5 membranes
T2 construct: purchased Perkin Elmer Biosignal
T2 sequence (P33032 whole entry): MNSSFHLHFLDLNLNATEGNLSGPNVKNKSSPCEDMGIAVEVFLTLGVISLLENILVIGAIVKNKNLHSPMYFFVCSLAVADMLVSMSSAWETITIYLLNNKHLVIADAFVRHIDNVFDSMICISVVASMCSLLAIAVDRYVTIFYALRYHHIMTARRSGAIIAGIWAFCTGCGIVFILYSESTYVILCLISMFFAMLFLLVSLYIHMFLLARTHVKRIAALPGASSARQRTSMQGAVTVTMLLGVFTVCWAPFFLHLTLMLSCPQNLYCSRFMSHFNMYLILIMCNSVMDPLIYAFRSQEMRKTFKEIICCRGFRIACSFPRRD
Method in brief: as §1

[3] = molecular target: T3, Human melanin-concentrating hormone (MCH1) (Homo sapiens, UniProt Q99705); assay: Radioligand binding, human melanin-concentrating hormone MCH1 membranes, FlashPlate, [125I]-S36057; conditions: compound at 10 μM; for A6 radioligand binding inhibition: human MCH1 membranes; for A6: inhibition of radioligand binding, human melanin-concentrating hormone (MCH1): [125I]-S36057
T3 construct: purchased Perkin Elmer Biosignal
T3 sequence (Q99705 whole entry): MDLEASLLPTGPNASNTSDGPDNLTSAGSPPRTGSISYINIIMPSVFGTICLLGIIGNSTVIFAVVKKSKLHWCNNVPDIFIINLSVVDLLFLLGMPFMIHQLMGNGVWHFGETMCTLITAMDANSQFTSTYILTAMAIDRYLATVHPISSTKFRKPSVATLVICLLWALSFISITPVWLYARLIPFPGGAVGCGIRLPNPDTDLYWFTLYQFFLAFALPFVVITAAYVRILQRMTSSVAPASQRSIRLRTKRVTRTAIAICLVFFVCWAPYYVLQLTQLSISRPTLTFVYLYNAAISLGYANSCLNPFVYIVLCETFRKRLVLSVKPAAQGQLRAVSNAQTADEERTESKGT
Method in brief: as §1

[4] = molecular target: T4, Human δ-opioid (DOP) (Homo sapiens, UniProt P41143); assay: Radioligand binding, human δ-opioid (DOP) membranes, FlashPlate, [3H]-Bremazocine; conditions: compound at 10 μM; for A1 radioligand binding inhibition: human δ-opioid (DOP) membranes
T4 construct: purchased Perkin Elmer Biosignal
T4 sequence (P41143 whole entry): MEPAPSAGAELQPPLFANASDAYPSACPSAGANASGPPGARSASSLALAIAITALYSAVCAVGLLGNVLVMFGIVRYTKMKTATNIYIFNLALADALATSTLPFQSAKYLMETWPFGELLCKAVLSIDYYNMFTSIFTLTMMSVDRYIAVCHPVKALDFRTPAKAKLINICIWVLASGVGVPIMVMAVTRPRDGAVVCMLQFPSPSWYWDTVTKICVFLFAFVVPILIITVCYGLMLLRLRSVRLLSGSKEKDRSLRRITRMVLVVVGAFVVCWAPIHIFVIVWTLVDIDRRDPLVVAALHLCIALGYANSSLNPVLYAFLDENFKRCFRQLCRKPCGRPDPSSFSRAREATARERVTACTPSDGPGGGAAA
Method in brief: as §1

[5] = molecular target: T5, Human Melanocortin (MC4) (Homo sapiens, UniProt P32245); assay: Radioligand binding, human melanocortin MC4 membranes, FlashPlate, [125I]-NDP-αMSH; conditions: compound at 10 μM; for A4 radioligand binding inhibition: human melanocortin MC4 membranes
T5 construct: purchased Perkin Elmer Biosignal
T5 sequence (P32245 whole entry): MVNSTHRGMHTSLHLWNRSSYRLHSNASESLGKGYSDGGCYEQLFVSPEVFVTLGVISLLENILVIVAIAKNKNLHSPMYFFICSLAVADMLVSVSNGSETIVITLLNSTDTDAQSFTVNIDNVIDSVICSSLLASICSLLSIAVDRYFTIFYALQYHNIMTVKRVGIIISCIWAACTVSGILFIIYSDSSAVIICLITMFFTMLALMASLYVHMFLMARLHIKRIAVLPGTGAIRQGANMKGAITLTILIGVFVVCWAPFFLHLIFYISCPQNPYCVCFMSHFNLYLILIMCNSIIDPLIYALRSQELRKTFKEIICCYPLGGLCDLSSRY
Method in brief: as §1

[6] = molecular target: T6, Mouse urotensin (mUR2) (Mus musculus, UniProt Q8VIH9); assay: Radioligand binding, mouse urotensin mUR2 membranes, FlashPlate, [125I]-Urotensin II; conditions: compound at 10 μM; for A11 radioligand binding inhibition: mouse urotensin mUR2 membranes
T6 construct: purchased Perkin Elmer Biosignal
T6 sequence (Q8VIH9 1-385): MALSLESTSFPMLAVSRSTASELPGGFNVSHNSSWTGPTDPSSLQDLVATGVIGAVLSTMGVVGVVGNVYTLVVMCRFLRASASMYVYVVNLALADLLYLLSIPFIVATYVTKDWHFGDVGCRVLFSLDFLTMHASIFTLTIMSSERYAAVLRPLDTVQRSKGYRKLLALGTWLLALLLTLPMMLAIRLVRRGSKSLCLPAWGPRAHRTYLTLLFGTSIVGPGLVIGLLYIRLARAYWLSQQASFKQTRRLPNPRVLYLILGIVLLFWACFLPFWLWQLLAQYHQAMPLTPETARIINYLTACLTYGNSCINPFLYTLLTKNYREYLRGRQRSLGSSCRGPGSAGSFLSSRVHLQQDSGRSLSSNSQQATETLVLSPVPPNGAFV
Method in brief: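 Cloned mouse urotensin (mUR2) receptor membranes from Perkin Elmer Biosignal were immobilized in FlashPlate microplates using a proprietary coating. Each well got 19.5 μl buffer, then 0.5 μl of DMSO, reference ligand, or compound. Adding 5 μl of [125I]-Urotensin II, diluted to 5× final concentration in binding buffer, started binding. Plates were sealed with TopSeal-A and incubated 1 hour at room temperature in the dark. Wells were counted for 30 seconds each on a TopCount after a 60-second delay, and percentage inhibition was calculated.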

[7] = molecular target: T7, Human opioid (ORL1) (Homo sapiens, UniProt P41146); assay: Radioligand binding, human opioid ORL1 membranes, FlashPlate, [125I]-Nociceptin; conditions: compound at 10 μM
T7 construct: purchased Perkin Elmer Biosignal
T7 sequence (P41146 whole entry): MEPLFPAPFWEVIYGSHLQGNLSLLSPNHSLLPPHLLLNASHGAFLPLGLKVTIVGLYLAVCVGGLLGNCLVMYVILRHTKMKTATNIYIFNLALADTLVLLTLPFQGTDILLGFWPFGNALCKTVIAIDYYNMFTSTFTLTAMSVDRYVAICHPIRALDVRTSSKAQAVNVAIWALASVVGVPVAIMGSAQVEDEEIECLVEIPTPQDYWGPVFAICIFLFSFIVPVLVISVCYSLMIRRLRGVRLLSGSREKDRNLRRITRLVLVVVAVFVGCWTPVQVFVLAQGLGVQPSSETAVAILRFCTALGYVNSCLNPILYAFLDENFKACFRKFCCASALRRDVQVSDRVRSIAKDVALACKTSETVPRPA
Method in brief: as §1

[8] = molecular target: T8, Human κ-Opioid (KOP) (Homo sapiens, UniProt P41145); assay: Radioligand binding, human κ-opioid (KOP) membranes, filtration, [3H]-Diprenorphine; conditions: compound at 10 μM; for A2 radioligand binding inhibition: human κ-opioid (KOP) membranes
T8 construct: purchased Perkin Elmer Biosignal
T8 sequence (P41145 whole entry): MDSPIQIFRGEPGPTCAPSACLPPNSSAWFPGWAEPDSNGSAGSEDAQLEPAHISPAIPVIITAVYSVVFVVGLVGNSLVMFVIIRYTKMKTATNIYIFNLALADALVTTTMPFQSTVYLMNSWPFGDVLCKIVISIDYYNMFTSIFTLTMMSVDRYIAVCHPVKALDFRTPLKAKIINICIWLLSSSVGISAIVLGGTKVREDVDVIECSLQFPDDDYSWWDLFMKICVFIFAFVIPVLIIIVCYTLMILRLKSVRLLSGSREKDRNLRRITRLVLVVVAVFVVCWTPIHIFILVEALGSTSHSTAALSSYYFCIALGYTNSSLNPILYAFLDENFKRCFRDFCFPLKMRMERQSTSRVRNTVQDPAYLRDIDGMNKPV
Method in brief: (§2)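 Percent inhibition of radioligand binding measured on recombinant human membranes: NK1 with [125I]-Substance P, KOP with [3H]-Diprenorphine. Incubation 1 h at room temperature, then harvest onto 0.3% PEI-soaked filters, cold Tris-HCl pH 7.4 washes and scintillation counting; non-specific binding from reference ligand wells.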

[9] = molecular target: T9, Human Melanocortin (MC3) (Homo sapiens, UniProt P41968); assay: Radioligand binding, human melanocortin MC3 membranes, FlashPlate, [125I]-NDP-αMSH; conditions: compound at 10 μM; for A3 radioligand binding inhibition: human melanocortin MC3 membranes
T9 construct: purchased Perkin Elmer Biosignal
T9 sequence (P41968 whole entry): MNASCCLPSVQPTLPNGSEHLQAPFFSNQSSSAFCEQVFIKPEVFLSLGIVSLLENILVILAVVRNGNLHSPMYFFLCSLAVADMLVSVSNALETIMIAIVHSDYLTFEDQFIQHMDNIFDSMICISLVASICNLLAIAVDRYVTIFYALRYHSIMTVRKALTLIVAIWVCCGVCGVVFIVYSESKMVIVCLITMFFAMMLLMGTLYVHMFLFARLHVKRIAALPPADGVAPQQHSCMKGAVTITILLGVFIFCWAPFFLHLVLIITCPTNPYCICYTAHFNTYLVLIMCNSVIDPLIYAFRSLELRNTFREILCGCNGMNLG
Method in brief: as §1

[10] = molecular target: T10, Human neurokinin (NK1) (Homo sapiens, UniProt P25103); assay: Radioligand binding, human neurokinin NK1 membranes, filtration, [125I]-Substance P; conditions: compound at 10 μM; for A8 radioligand binding inhibition: human neurokinin NK1 membranes
T10 construct: purchased Perkin Elmer Biosignal
T10 sequence (P25103 whole entry): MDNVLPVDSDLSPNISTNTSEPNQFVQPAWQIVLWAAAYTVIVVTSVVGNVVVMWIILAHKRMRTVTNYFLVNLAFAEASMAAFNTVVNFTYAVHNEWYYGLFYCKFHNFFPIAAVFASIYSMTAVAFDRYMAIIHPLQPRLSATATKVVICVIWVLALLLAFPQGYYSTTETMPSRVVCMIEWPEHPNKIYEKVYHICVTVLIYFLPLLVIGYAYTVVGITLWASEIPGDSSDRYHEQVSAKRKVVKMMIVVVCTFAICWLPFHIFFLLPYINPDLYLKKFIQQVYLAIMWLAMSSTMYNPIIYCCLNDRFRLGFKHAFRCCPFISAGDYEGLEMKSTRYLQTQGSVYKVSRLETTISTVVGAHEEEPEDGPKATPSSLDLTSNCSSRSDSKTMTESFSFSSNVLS
Method in brief: as §2

[11] = molecular target: T11, Human neuropeptide Y (NPY-Y1) (Homo sapiens, UniProt P25929); assay: Radioligand binding, human neuropeptide Y NPY-Y1 membranes, FlashPlate, [125I]-PYY; conditions: compound at 10 μM
T11 construct: purchased Perkin Elmer Biosignal
T11 sequence (P25929 1-384): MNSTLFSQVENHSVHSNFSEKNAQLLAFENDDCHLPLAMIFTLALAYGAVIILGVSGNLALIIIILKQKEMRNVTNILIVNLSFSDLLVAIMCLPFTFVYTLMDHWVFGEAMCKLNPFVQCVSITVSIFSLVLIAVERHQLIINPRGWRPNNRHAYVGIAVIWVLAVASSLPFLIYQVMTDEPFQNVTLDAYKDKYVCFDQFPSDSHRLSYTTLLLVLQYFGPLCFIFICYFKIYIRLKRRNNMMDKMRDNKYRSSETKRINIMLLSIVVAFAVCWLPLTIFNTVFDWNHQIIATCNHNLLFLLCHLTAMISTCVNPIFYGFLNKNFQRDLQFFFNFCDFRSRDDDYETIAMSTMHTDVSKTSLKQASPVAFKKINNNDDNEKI
Method in brief: as §1

T1 sequence (P35372 whole entry): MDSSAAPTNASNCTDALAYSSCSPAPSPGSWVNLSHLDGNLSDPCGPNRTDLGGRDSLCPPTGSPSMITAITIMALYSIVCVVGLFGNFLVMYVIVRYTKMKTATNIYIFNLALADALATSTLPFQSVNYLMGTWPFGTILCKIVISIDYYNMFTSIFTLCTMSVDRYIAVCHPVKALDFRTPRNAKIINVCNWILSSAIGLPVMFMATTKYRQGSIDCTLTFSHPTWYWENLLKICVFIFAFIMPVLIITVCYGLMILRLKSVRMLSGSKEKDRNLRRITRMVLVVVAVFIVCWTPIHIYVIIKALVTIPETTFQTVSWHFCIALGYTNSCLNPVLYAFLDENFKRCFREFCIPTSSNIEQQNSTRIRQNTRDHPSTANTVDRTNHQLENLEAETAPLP

SMILES | A7 radioligand binding inhibition [1] | A5 radioligand binding inhibition [2] | A6 radioligand binding inhibition [3] | A1 radioligand binding inhibition [4] | A4 radioligand binding inhibition [5] | A11 radioligand binding inhibition [6] | A10 radioligand binding inhibition ([7]; human ORL1 membranes) | A2 radioligand binding inhibition [8] | A3 radioligand binding inhibition [9] | A8 radioligand binding inhibition [10] | A9 radioligand binding inhibition ([11]; human NPY-Y1 membranes) | A7: inhibition of radioligand binding, human μ-opioid (MOP) ([1]; [3H]-Naloxone) | A5: inhibition of radioligand binding, human melanocortin (MC5) ([2]; [125I]-NDP-αMSH) | A6: inhibition of radioligand binding, human melanin-concentrating hormone (MCH1) [3] | A1: inhibition of radioligand binding, human δ-opioid (DOP) ([4]; [3H]-Bremazocine) | A4: inhibition of radioligand binding, human melanocortin (MC4) ([5]; [125I]-NDP-αMSH) | A11: inhibition of radioligand binding, mouse urotensin (mUR2) ([6]; [125I]-Urotensin II) | A10: inhibition of radioligand binding, human opioid (ORL1) ([7]; [125I]-Nociceptin) | A3: inhibition of radioligand binding, human melanocortin (MC3) ([9]; [125I]-NDP-αMSH) | A8: inhibition of radioligand binding, human neurokinin (NK1) ([10]; [125I]-Substance P) | further results
COC[C@H]1OC(OCc2ccc(-c3ccccc3)cc2)[C@H](NC(=O)CNC(=N)N)[C@@H](OCc2ccc(Cl)cc2)[C@@H]1O (stereo partly shown) [compound 10] | − (“−” indicates less than 50% inhibition at 10 μM) | + (“+” indicates greater than 50% inhibition at 10 μM) | + (“+” indicates greater than 50% inhibition at 10 μM) | − (“−” indicates less than 50% inhibition at 10 μM) | − (“−” indicates less than 50% inhibition at 10 μM) | − (“−” indicates less than 50% inhibition at 10 μM) | − (“−” indicates less than 50% inhibition at 10 μM) | − (“−” indicates less than 50% inhibition at 10 μM) | − (“−” indicates less than 50% inhibition at 10 μM) | + (“+” indicates greater than 50% inhibition at 10 μM) | − (“−” indicates less than 50% inhibition at 10 μM) | – | – | – | – | – | – | – | – | – | –
N=C(N)NCC(=O)N[C@H]1C(OCc2ccc(Cl)cc2)O[C@H](COCc2ccc3ccccc3c2)[C@@H](O)[C@@H]1OCc1ccc2ccccc2c1 (stereo partly shown) [compound 513] | – | – | – | – | – | – | – | – | – | – | – | + (“+” indicates greater than 50% inhibition at 10 μM) | + (“+” indicates greater than 50% inhibition at 10 μM) | + (“+” indicates greater than 50% inhibition at 10 μM) | − (“−” indicates less than 50% inhibition at 10 μM) | + (“+” indicates greater than 50% inhibition at 10 μM) | − (“−” indicates less than 50% inhibition at 10 μM) | + (“+” indicates greater than 50% inhibition at 10 μM) | + (“+” indicates greater than 50% inhibition at 10 μM) | + (“+” indicates greater than 50% inhibition at 10 μM) | A2: inhibition of radioligand binding, human κ-opioid (KOP) ([8]; [3H]-Diprenorphine, 10 µM): + (“+” indicates greater than 50% inhibition at 10 μM); A9: inhibition of radioligand binding, human neuropeptide Y (NPY-Y1) ([11]; [125I]-PYY, 10 µM): + (“+” indicates greater than 50% inhibition at 10 μM)
NCCC(=O)N[C@H]1C(OCc2ccc3ccccc3c2)O[C@H](COCc2ccc3ccccc3c2)[C@@H](O)[C@@H]1OCc1ccccc1 (stereo partly shown) [compound 448] | – | – | – | – | – | – | – | – | – | – | – | – | – | – | – | – | – | – | – | – | A7: inhibition of radioligand binding ([1]; [3H]-Naloxone, human MOP membranes): − (“−” indicates less than 50% inhibition at 10 μM); A5: inhibition of radioligand binding ([2]; [125I]-NDP-αMSH, human MC5 membranes): + (“+” indicates greater than 50% inhibition at 10 μM); A6: inhibition of radioligand binding ([3]; [125I]-S36057, human MCH1 membranes, 10 µM): − (“−” indicates less than 50% inhibition at 10 μM); A1: inhibition of radioligand binding ([4]; [3H]-Bremazocine, human DOP membranes): − (“−” indicates less than 50% inhibition at 10 μM); A4: inhibition of radioligand binding ([5]; [125I]-NDP-αMSH, human MC4 membranes): + (“+” indicates greater than 50% inhibition at 10 μM); A11: inhibition of radioligand binding ([6]; [125I]-Urotensin II, mouse mUR2 membranes): − (“−” indicates less than 50% inhibition at 10 μM); A10: inhibition of radioligand binding ([7]; [125I]-Nociceptin, human ORL1 membranes, 10 µM): − (“−” indicates less than 50% inhibition at 10 μM); A2: inhibition of radioligand binding ([8]; [3H]-Diprenorphine, human KOP membranes): − (“−” indicates less than 50% inhibition at 10 μM); A3: inhibition of radioligand binding ([9]; [125I]-NDP-αMSH, human MC3 membranes, 10 µM): − (“−” indicates less than 50% inhibition at 10 μM); A8: inhibition of radioligand binding ([10]; [125I]-Substance P, human NK1 membranes): + (“+” indicates greater than 50% inhibition at 10 μM); A9: inhibition of radioligand binding ([11]; [125I]-PYY, human NPY-Y1 membranes): − (“−” indicates less than 50% inhibition at 10 μM)
N=C(N)NCC(=O)N[C@H]1C(OCc2ccc(Cl)cc2)O[C@H](COCc2ccc(Cl)cc2)[C@@H](O)[C@@H]1OCc1ccc(Cl)cc1 (stereo partly shown) [compound 511] | – | – | – | – | – | – | – | – | – | – | – | + (“+” indicates greater than 50% inhibition at 10 μM) | + (“+” indicates greater than 50% inhibition at 10 μM) | + (“+” indicates greater than 50% inhibition at 10 μM) | − (“−” indicates less than 50% inhibition at 10 μM) | + (“+” indicates greater than 50% inhibition at 10 μM) | − (“−” indicates less than 50% inhibition at 10 μM) | + (“+” indicates greater than 50% inhibition at 10 μM) | + (“+” indicates greater than 50% inhibition at 10 μM) | + (“+” indicates greater than 50% inhibition at 10 μM) | A2: inhibition of radioligand binding, human κ-opioid (KOP) ([8]; [3H]-Diprenorphine): − (“−” indicates less than 50% inhibition at 10 μM); A9: inhibition of radioligand binding, human neuropeptide Y (NPY-Y1) ([11]; [125I]-PYY): − (“−” indicates less than 50% inhibition at 10 μM)
CO[C@H]1[C@H](O)[C@@H](COCc2ccc3ccccc3c2)OC(OCc2ccccc2)[C@@H]1NC(=O)CNC(=N)N (stereo partly shown) [compound 86] | + (“+” indicates greater than 50% inhibition at 10 μM) | + (“+” indicates greater than 50% inhibition at 10 μM) | − (“−” indicates less than 50% inhibition at 10 μM) | − (“−” indicates less than 50% inhibition at 10 μM) | + (“+” indicates greater than 50% inhibition at 10 μM) | − (“−” indicates less than 50% inhibition at 10 μM) | − (“−” indicates less than 50% inhibition at 10 μM) | − (“−” indicates less than 50% inhibition at 10 μM) | + (“+” indicates greater than 50% inhibition at 10 μM) | + (“+” indicates greater than 50% inhibition at 10 μM) | − (“−” indicates less than 50% inhibition at 10 μM) | – | – | – | – | – | – | – | – | – | –
